15 compounds from PubChem BioAssay (NCI) can be followed below.

Among the test systems are A549 NSCLC; COLO 205 colon; K-562 leukemia; KM12 colon; NCI-H23 lung; OVCAR-4 ovarian; SF-295 CNS; SF-539 CNS; SK-OV-3 ovarian.
Assay in all cases: NCI-60 cell line screen, 48 h

Structures are written as SMILES. Values joined by “and” are separate entries in the source; they are usually repeats but may differ in a detail not shown here. Equal values may be shown once.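 Five concentrations, 48 hours, 96-well plates. TGI: concentration producing complete growth inhibition.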

On to `COC(=O)C12C3C4C1C1C2C3C41C(=O)OC(C)(C)C` (stereo unspecified), for which the TGI in the test on A549 NSCLC, with COLO 205 colon, with K-562 leukemia, with KM12 colon, in the test on NCI-H23 lung and with OVCAR-4 ovarian was > 100 µM in each case. For the same compound, the TGI in the test with SF-295 CNS, in the test on SF-539 CNS and in the test on SK-OV-3 ovarian was > 100 µM in each case.
Turning to `Cc1cc(Br)cc(C)c1NC(=O)C(=O)C(C(=O)c1ccc2ccccc2c1)C1OC(=O)c2ccccc21` (stereo unspecified), the TGI is > 100 µM in the test with A549 NSCLC; 50.9 µM in the test with COLO 205 colon; > 72.9 µM with K-562 leukemia; 34 µM with KM12 colon; 13.6 µM in the test on NCI-H23 lung; > 36.4 µM with OVCAR-4 ovarian. Besides, the TGI in the test with SF-295 CNS is 14.9 µM; with SF-539 CNS, 11.2 µM; with SK-OV-3 ovarian it was > 100 µM.
On to `O=S(O)CCCCSSCC(O)C(O)CSSCCCCS(=O)O` (stereo unspecified), for which the TGI in the test on A549 NSCLC is > 100 µM; in the test with COLO 205 colon, 29 µM and 39.5 µM; with K-562 leukemia, 60.6 µM and > 100 µM; in the test with KM12 colon it was 36.4 µM and > 100 µM; in the test on NCI-H23 lung it was 42.3 µM and > 100 µM; in the test on OVCAR-4 ovarian it was 19.9 µM and 23.8 µM. In addition, the TGI is 33.1 µM and 37.5 µM in the test with SF-295 CNS; 69.7 µM and > 100 µM in the test with SF-539 CNS; > 100 µM in the test on SK-OV-3 ovarian.
Take `CC1OC(n2cc(F)c(=O)[nH]c2=O)C=CC1O` (stereo unspecified): the TGI in the test with A549 NSCLC, with COLO 205 colon, with K-562 leukemia, in the test on KM12 colon, in the test on NCI-H23 lung and with OVCAR-4 ovarian was > 100 µM in each case. Moreover, the TGI in the test with SF-295 CNS, in the test on SF-539 CNS and in the test with SK-OV-3 ovarian was > 100 µM in each case.
Consider `COC(=O)C(C(=O)C(=O)Nc1cccc(OC)c1)c1cnc2ccccc2n1` (stereo unspecified), for which the TGI with A549 NSCLC, in the test on COLO 205 colon, in the test on K-562 leukemia, in the test with KM12 colon, with NCI-H23 lung and in the test on OVCAR-4 ovarian was > 100 µM each time. For the same compound, the TGI with SF-295 CNS, in the test with SF-539 CNS and in the test with SK-OV-3 ovarian was > 100 µM in each case.
Take `O=C(O/N=C1/CCCC/C1=C\c1ccccc1)c1ccccc1`: the TGI is > 100 µM in the test with A549 NSCLC; > 100 µM in the test on COLO 205 colon; 41 µM in the test on K-562 leukemia; > 100 µM with KM12 colon; > 100 µM in the test on NCI-H23 lung; > 100 µM in the test with SF-295 CNS. In addition, the TGI in the test with SF-539 CNS and with SK-OV-3 ovarian was > 100 µM each time.
`O=C1c2ccccc2C(=O)C1(Cl)C1(S(=O)(=O)O)c2ccccc2-c2ccccc21`: the TGI in the test on A549 NSCLC, in the test on COLO 205 colon, with K-562 leukemia, in the test on KM12 colon, in the test with NCI-H23 lung and in the test on OVCAR-4 ovarian was > 100 µM each time. Further, the TGI in the test with SF-295 CNS, with SF-539 CNS and in the test on SK-OV-3 ovarian was > 100 µM each time.
With `CC1=CC(/C=C(\C)CCCc2ccoc2)C2(OC(=O)C(C)=C2O)[C@H]2C1CC[C@@H]2C` (stereo partly specified), the TGI in the test with A549 NSCLC is > 100 µM; in the test on COLO 205 colon, 47 µM; in the test with K-562 leukemia, > 100 µM; in the test on KM12 colon it was > 100 µM; with NCI-H23 lung it was 67.2 µM; with SF-295 CNS it was 56.2 µM. Further, the TGI is 36.8 µM in the test on SF-539 CNS and 69 µM in the test on SK-OV-3 ovarian.
Regarding `CCCCN(CCCC)CC(C(=O)Nc1ccc([N+](=O)[O-])cc1[N+](=O)[O-])/C(C)=N\NC(=S)NN` (stereo unspecified), the TGI in the test with A549 NSCLC, in the test on COLO 205 colon, in the test on K-562 leukemia, with KM12 colon, in the test with NCI-H23 lung and in the test on SF-295 CNS was > 100 µM each time. Also, the TGI with SF-539 CNS and with SK-OV-3 ovarian was > 100 µM each time.
On to `O=C1CN=C(C[N+](=O)[O-])c2ccccc21`, for which the TGI in the test on A549 NSCLC, in the test on COLO 205 colon, in the test with K-562 leukemia, with KM12 colon, in the test with NCI-H23 lung and in the test on OVCAR-4 ovarian was > 100 µM each time. Moreover, the TGI in the test with SF-295 CNS, in the test on SF-539 CNS and in the test with SK-OV-3 ovarian was > 100 µM in each case.
As to `COC(=O)C1=C(c2ccc3c(c2)OCO3)O[C@H](c2cc(OC)c(OC)c(OC)c2)[C@H]1COC(C)=O`, the TGI was 47.8 µM in the test with A549 NSCLC; 3.02 µM with COLO 205 colon; > 100 µM with K-562 leukemia; 50 µM in the test with KM12 colon; 17.7 µM in the test with NCI-H23 lung; > 100 µM with OVCAR-4 ovarian. The TGI in the test with SF-295 CNS amounted to 11.4 µM; in the test with SF-539 CNS, 6.91 µM; in the test with SK-OV-3 ovarian it was 5.94 µM.
`CNC(=S)NC1CCCCC1NC(=S)NC` (stereo unspecified): the TGI in the test on A549 NSCLC, in the test with COLO 205 colon, in the test with K-562 leukemia, in the test with KM12 colon, in the test with NCI-H23 lung and in the test with OVCAR-4 ovarian was > 100 µM each time. Moreover, the TGI in the test on SF-295 CNS, in the test with SF-539 CNS and with SK-OV-3 ovarian was > 100 µM throughout.
For the compound `CC(C)(C)[SiH]12(OC(C(F)(F)F)(C(F)(F)F)c3ccccc31)OC(C(F)(F)F)(C(F)(F)F)c1ccccc12`, the TGI in the test on A549 NSCLC was 19.9 µM; with COLO 205 colon, 21 µM; in the test with K-562 leukemia, 18.2 µM; with KM12 colon, 15.3 µM; in the test on NCI-H23 lung, 9.64 µM; in the test on OVCAR-4 ovarian it was 19.7 µM. For the same compound, the values for the TGI in the test on SF-295 CNS and in the test with SF-539 CNS were 8.41 µM and 6.54 µM, respectively.
Regarding `CCCCOC(=O)C1C(c2ccc(Cl)cc2)NC(c2ccc(Cl)cc2)C(C(=O)OCCCC)S1(=O)=O` (stereo unspecified), the TGI in the test on A549 NSCLC, with COLO 205 colon, with K-562 leukemia, in the test with KM12 colon, in the test with NCI-H23 lung and with OVCAR-4 ovarian was > 100 µM each time. Moreover, the TGI in the test on SF-295 CNS, with SF-539 CNS and in the test with SK-OV-3 ovarian was > 100 µM throughout.
For `COc1ccc(NC(=O)CCc2cc(-c3ccc(O)c(OC)c3)nc(NC#N)n2)cc1`, the TGI in the test on A549 NSCLC, with COLO 205 colon, in the test on K-562 leukemia, in the test on KM12 colon, with NCI-H23 lung and in the test with OVCAR-4 ovarian was > 100 µM throughout. Besides, the TGI in the test on SF-295 CNS, in the test with SF-539 CNS and in the test with SK-OV-3 ovarian was > 100 µM throughout.
